From ChEMBL document CHEMBL2010730, “An example of designed multiple ligands spanning protein classes: dual MCH-1R antagonists/DPPIV inhibitors” (Bioorg Med Chem Lett, 2012)

Tests used:
[1] = molecular target: T1, Melanin-concentrating hormone receptor 1 (Homo sapiens, UniProt Q99705); assay: Antagonist activity at human MCH1R expressed in CHO cells assessed as inhibition of MCH-induced response at 5 uM; assay type: functional, cell-based
Dipeptidyl peptidase 4 [2] = molecular target: T2, Dipeptidyl peptidase 4 (Homo sapiens, UniProt P27487); assay: Inhibition of human recombinant DPP4 using H-Gly-Pro-7-amino-4-methylcoumarin as substrate assessed as inhibition of 7-amino-4-methylcoumarin formation after 30 mins by fluorimetry
Dipeptidyl peptidase 8 = Dipeptidyl peptidase 8 (Homo sapiens, UniProt Q6V1X1); assay: Inhibition of DPP8
[3] = molecular target: T1, Melanin-concentrating hormone receptor 1; assay: Antagonist activity at human MCH1R expressed in forskolin-stimulated CHO cells assessed as inhibition of MCH-induced cAMP accumulation after 90 mins; assay type: functional, cell-based
Dipeptidyl peptidase 9 = Dipeptidyl peptidase 9 (Homo sapiens, UniProt Q86TI2); assay: Inhibition of DPP9
[4] = molecular target: T1, Melanin-concentrating hormone receptor 1; assay: Antagonist activity at human MCH1R expressed in CHO cells assessed as inhibition of MCH-induced response; assay type: functional, cell-based
[5] = molecular target: Voltage-gated inwardly rectifying potassium channel KCNH2 (Homo sapiens, UniProt Q12809)
[6] = Lipophilicity, log D of the compound at pH 7.4; assay type: physicochemical; details: buffer
Dipeptidyl peptidase 4 [7] = molecular target: T2, Dipeptidyl peptidase 4; assay: Inhibition of DPP4

T1 sequence (Q99705 whole entry): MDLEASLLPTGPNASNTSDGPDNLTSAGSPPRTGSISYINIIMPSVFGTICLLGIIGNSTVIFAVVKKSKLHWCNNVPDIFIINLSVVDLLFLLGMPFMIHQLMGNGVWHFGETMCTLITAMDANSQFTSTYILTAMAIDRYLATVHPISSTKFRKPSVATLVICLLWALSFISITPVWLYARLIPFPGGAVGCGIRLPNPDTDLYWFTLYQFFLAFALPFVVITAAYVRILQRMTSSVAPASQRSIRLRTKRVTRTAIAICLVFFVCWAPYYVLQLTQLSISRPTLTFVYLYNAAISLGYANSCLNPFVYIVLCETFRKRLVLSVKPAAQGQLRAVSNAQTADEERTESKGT
T2 sequence (P27487 whole entry): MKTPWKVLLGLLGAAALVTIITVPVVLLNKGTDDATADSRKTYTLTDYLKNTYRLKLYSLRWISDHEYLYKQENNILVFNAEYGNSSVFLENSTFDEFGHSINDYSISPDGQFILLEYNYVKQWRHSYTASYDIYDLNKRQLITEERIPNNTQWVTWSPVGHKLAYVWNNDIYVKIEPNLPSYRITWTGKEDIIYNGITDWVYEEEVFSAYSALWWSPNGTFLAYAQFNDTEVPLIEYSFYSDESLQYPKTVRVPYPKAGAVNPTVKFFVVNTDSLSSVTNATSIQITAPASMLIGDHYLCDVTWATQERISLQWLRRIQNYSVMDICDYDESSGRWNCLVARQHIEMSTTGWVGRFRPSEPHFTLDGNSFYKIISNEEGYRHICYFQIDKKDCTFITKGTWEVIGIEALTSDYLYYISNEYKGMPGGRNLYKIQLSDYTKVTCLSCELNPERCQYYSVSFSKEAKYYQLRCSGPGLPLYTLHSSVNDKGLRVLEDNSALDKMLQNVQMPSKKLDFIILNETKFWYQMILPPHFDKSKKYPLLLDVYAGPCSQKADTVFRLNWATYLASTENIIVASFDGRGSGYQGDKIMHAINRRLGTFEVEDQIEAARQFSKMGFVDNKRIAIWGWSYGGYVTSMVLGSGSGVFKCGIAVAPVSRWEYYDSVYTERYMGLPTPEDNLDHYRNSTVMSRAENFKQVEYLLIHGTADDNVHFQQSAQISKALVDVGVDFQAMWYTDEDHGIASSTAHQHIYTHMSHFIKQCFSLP
Sequence of Dipeptidyl peptidase 9 (Q86TI2 whole entry): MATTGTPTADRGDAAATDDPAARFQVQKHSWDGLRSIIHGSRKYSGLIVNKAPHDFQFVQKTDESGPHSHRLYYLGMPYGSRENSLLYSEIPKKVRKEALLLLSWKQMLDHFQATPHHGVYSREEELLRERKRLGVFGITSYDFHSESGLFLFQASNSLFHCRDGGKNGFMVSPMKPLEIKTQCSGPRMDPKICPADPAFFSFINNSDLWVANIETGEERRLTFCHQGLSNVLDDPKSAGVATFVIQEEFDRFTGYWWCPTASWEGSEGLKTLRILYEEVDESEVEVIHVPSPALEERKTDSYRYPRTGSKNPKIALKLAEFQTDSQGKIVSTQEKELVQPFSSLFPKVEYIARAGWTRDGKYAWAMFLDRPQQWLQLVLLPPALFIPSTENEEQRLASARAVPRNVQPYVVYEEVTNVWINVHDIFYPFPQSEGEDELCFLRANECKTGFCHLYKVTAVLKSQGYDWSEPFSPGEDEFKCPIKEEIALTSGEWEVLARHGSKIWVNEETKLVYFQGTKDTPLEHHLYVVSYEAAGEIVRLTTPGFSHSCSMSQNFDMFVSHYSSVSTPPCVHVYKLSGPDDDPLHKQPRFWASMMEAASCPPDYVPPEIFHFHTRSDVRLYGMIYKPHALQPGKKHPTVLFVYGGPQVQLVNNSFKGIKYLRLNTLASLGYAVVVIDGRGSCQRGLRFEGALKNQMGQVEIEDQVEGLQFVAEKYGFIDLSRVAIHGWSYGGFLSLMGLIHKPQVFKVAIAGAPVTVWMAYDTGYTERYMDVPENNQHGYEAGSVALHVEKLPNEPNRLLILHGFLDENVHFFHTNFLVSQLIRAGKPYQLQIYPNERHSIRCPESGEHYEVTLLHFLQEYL
Sequence of Dipeptidyl peptidase 8 (Q6V1X1 whole entry): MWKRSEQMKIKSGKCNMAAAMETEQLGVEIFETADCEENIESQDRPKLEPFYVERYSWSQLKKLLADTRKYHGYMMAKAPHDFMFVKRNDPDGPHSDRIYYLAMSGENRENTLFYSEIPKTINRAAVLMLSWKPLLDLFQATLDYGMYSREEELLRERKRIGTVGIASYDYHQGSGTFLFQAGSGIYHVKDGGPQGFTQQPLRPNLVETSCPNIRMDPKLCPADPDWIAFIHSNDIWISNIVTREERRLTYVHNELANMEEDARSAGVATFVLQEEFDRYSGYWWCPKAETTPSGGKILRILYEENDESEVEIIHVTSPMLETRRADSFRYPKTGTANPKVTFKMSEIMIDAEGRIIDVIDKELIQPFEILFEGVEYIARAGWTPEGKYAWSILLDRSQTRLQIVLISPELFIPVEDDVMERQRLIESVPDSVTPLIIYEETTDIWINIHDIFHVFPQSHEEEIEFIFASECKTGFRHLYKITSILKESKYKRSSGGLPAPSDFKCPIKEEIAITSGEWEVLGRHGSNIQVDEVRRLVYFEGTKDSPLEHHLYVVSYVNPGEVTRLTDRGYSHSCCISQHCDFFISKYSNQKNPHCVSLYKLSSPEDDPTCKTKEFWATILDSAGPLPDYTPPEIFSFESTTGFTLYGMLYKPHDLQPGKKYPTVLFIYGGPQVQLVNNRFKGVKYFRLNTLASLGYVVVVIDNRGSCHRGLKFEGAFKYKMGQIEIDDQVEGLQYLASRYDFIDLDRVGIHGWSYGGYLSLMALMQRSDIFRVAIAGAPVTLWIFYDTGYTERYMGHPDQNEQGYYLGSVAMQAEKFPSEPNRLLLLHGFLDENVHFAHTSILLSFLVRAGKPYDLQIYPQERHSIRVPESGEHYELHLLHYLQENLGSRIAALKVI
Sequence of Voltage-gated inwardly rectifying potassium channel KCNH2 (Q12809 whole entry): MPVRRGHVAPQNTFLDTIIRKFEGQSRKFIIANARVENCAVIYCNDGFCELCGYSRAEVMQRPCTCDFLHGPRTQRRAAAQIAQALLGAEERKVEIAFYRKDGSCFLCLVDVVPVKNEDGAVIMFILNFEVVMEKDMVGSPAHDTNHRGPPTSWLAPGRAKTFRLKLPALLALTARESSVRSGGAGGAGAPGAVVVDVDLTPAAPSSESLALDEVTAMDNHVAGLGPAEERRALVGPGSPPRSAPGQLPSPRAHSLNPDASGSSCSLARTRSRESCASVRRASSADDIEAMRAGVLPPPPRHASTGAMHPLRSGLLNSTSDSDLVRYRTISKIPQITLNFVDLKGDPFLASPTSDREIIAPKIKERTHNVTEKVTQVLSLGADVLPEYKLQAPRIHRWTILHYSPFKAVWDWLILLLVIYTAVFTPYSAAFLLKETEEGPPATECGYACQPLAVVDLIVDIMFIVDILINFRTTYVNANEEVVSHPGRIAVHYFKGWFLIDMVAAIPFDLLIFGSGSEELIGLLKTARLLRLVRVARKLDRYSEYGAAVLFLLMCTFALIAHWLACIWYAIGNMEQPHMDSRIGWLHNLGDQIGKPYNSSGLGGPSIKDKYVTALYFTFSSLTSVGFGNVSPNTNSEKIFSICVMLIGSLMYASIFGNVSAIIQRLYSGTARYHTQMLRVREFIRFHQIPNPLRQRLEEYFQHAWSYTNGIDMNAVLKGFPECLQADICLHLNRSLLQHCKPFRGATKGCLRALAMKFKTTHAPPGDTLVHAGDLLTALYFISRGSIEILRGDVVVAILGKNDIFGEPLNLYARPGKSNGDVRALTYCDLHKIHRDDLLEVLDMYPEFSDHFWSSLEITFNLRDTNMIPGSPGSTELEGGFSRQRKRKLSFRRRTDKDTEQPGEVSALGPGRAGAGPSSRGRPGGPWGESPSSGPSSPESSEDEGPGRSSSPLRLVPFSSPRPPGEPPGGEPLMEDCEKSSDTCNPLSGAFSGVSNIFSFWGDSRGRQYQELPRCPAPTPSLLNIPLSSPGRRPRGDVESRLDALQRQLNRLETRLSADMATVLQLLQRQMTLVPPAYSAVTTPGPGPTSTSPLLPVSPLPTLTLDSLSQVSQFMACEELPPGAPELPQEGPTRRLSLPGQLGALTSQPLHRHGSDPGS

Compound | inhibition [1] [%] | IC50 (Dipeptidyl peptidase 4 [2]) [µM] | IC50 [4] [µM] | further results
N[C@H]1CN(c2ccc(-n3ccc(-c4ccccc4)cc3=O)cn2)C[C@@H]1c1cc(F)ccc1F | 39 | – | – | –
CCCCOc1ccc2c(c1)CCN(c1ccc(N3C[C@H](c4cc(F)ccc4F)[C@@H](N)C3)nc1)C2=O | 44 | – | 4 | –
N[C@H]1CN(c2ccc(-n3ccnc(CCCc4ccccc4)c3=O)cn2)C[C@@H]1c1cc(F)ccc1F | 52 | – | > 3 | –
CC(C)COc1ccc(CC(=O)Nc2ccc(N3C[C@H](c4cc(F)ccc4F)[C@@H](N)C3)nc2)cc1 | 35 | – | – | –
N[C@H]1CN(c2cc(-c3ccccc3)ncn2)CC[C@@H]1c1cc(F)c(F)cc1F | – | – | – | Ki (Dipeptidyl peptidase 4 [7]): 0.006 µM

Continued, in another order:

inhibition [1] [%] | IC50 (Dipeptidyl peptidase 4 [2]) [µM] | IC50 [4] [µM] | Compound | further results
– | > 100 | 0.02 | N[C@@H]1CCN(c2ccc(-n3ccc(OCc4ccccc4)cc3=O)cn2)C1 | IC50 (Dipeptidyl peptidase 8): > 100 µM; Ki [3]: 0.006 µM; IC50 (Dipeptidyl peptidase 9): > 100 µM
43 | – | 3.8 | N[C@H]1CN(c2ccc(CCNC(=O)c3ccc(OCC4CC4)cc3)cn2)C[C@@H]1c1cc(F)ccc1F | –
104 | 1.65 | 0.14 | N[C@H]1CN(c2ccc(-n3ccc(OCc4ccccc4)cc3=O)cn2)C[C@@H]1c1cc(F)ccc1F | –
– | 1.1 | 0.11 | N[C@H]1CN(c2ccc(-n3ccc(OCc4ccccc4)cc3=O)cn2)C[C@@H]1c1cc(F)c(F)cc1F | IC50 [5]: 6.1 µM; logD [6]: 3.4
– | 0.35 | 0.44 | N[C@H]1CN(c2ccc(-n3ccc(OCc4ccccc4)cc3=O)cn2)CC[C@@H]1c1cc(F)c(F)cc1F | IC50 (Dipeptidyl peptidase 8): > 50 µM; IC50 (Dipeptidyl peptidase 9): > 50 µM
